Assay results as given in US8278310B2, “Amine salts of a CRTH2 antagonist” (Actimis Pharmaceuticals, Inc., priority 2007, dated 2012).

How the values were obtained:
CRTH2 = biological target: T1, CRTH2 (Homo sapiens, UniProt Q9Y5Y4); test: Competitive radioligand (3H-PGD2) binding assay using CRTH2-transfected cells; details: 1 nM 3H-PGD2, FIG. 20
T1 construct: expressed in transfected cells
T1 sequence (Q9Y5Y4 1-395): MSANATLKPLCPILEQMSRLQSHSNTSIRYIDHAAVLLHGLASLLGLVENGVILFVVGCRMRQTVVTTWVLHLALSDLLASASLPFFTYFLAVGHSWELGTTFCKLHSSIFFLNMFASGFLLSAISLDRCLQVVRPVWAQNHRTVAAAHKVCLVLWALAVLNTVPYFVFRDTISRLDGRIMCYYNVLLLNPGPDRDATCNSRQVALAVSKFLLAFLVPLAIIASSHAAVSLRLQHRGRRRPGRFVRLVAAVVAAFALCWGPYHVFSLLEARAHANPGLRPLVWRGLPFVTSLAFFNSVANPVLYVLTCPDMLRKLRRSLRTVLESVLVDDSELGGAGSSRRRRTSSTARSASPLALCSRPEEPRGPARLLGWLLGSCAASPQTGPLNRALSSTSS
Method: The surface expression of CRTH2 on the transfected cell lines was monitored periodically during culture and prior to each competitive radioligand binding assay. […] The cells were then washed in 2 mL of FACS buffer (PBS containing 1% BSA (Fraction V) and 0.1% sodium azide. The cells were subsequently incubated on ice with a FITC-conjugated anti-rat antibody (goat anti-rat Ig-FITC). After washed with cold FACS buffer, the cells were analyzed using a FACScan II analyzer and CellQuest software, both from Becton Dickinson (Mountain View, Calif.).
The test compounds were dissolved in DMSO at a concentration of 100 mM as stock solutions. Serial dilutions from 10 μM were made in binding buffer prior to assay. Transfected cells were resuspended in binding buffer (50 mM Tris-HCl, 40 mM MgCl2, and 0.1% bovine serum albumin, at pH 7.4) at a concentration of 4×10^6/mL at room temperature. Transfected cells were then seeded in U-bottom polypropylene 96-well plates (Fisher) by adding 50 μL of the cell suspension, followed by addition of 10 μL of ^3H-PGD2, 10 μL of the test compound solutions at a series of concentrations or controls, 30 μL of the binding buffer to bring the final volume to 100 μL. […] Scintillant (50 μL; Microscint™20, Perkin Elmer, Boston, Mass.) was added to each well and the radioactivity was counted on a TopCount (Packard Bioscience, Meriden, Conn.). […]

DP1 = biological target: T2, DP1 (Homo sapiens, UniProt Q13258); test: Competitive radioligand (3H-PGD2) binding assay using DP1-transfected cells; details: CRTH2- versus DP1-transfected cells, FIGS. 20 and 21
T2 sequence (Q13258 1-359): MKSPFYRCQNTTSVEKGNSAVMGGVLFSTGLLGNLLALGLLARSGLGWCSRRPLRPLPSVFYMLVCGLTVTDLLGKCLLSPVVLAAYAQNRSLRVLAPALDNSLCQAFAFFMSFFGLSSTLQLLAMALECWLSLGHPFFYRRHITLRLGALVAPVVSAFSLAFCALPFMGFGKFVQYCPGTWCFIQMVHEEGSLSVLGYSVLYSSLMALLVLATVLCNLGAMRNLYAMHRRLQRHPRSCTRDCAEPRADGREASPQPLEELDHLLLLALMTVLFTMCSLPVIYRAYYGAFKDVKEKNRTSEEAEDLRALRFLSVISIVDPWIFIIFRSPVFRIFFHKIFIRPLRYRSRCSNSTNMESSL
Method: The binding affinity and selectivity of the amine salts of 4,6-bis(dimethylamino)-2-(4-(4-(trifluoromethyl)benzamido)benzyl)pyrimidin-5-yl}acetic acid provided herein were evaluated using a competitive radioligand binding assay with stably-transfected cell lines expressing CRTH2 or DP1.
The CRTH2 and DP1 stable cell lines were generated according to the procedure described by Sugimoto et al. (J. Pharm. Exp. Therap. 2003, 305, 347-352). These cell lines were maintained in RPMI 1640 culture medium containing HEPES buffer (25 mM), FCS (10%), L-glutamine (2 mM), penicillin (10 IU/mL), streptomycin (100 μg/mL), and puromycin (1 μg/mL).
Radioligand binding analyses were performed according to the methods of Sugimoto et al. (J. Pharm. Exp. Therap. 2003, 305, 347-352; Eur. J. Pharmacol. 2005, 524, 30-37). The test compounds were dissolved in DMSO at a concentration of 100 mM as stock solutions. Serial dilutions from 10 μM were made in binding buffer prior to assay. Transfected cells were resuspended in binding buffer (50 mM Tris-HCl, 40 mM MgCl2, and 0.1% bovine serum albumin, at pH 7.4) at a concentration of 4×10^6/mL at room temperature. […] Scintillant (50 μL; Microscint™20, Perkin Elmer, Boston, Mass.) was added to each well and the radioactivity was counted on a TopCount (Packard Bioscience, Meriden, Conn.). […]

[1] = Aqueous solubility of the salts from base screening; assay type: physicochemical; details: salt of the acid of Formula I with the named base

## CN(C)c1nc(Cc2ccc(NC(=O)c3ccc(C(F)(F)F)cc3)cc2)nc(N(C)C)c1CC(=O)O [Formula I, {4,6-bis(dimethyl-amino)-2-(4-(4-(trifluoro-methyl)benzamido)benzyl)pyrimidin-5-yl}acetic acid]
CRTH2
  binding affinity for CRTH2: high affinity
DP1
  binding selectivity for CRTH2: bind selectively

## piperazine Salt of {4,6-Bis(dimethylamino)-2-(4-(4-(trifluoromethyl)benzamido)benzyl)pyrimidin-5-yl}Acetic Acid
[1]
  Aqueous Solubility at 25° C.: 5400 µg/mL

## CN(C)c1nc(Cc2ccc(NC(=O)c3ccc(C(F)(F)F)cc3)cc2)nc(N(C)C)c1CC(=O)O.c1ccc(CNCCNCc2ccccc2)cc1 [Benzathine, Benzathine Salt of {4,6-Bis(dimethylamino)-2-(4-(4-(trifluoromethyl)benzamido)benzyl)pyrimidin-5-yl}Acetic Acid]
[1]
  Aqueous Solubility at 25° C.: 80 µg/mL
